Values after ≈ are worked out from the molar mass of the structure shown. Like-named read-outs stand apart in the source and are kept apart here.
What was measured:
Experiment in all cases: Antibacterial activity, MIC by microdilution broth method (CLSI)
[1] = system: E. faecium; type: cell-based, Enterococcus faecium
[2] = system: S. aureus; type: cell-based, Staphylococcus aureus; settings: for MIC: Staphylococcus aureus; for MIC (range over strains): clinically isolated MRSA (10 strains)
[3] = system: E. faecalis; type: cell-based; settings: for MIC: Enterococcus faecalis; for MIC (range over strains): clinically isolated E. faecalis (15 strains)
[4] = Enterococcus faecium, ATCC35667, 20 h, E. faecium ATCC 35667, CA-MHB, 37 °C, 20 h, read-out: MIC
[5] = Enterococcus faecium, clinically isolated E. faecium strain 7, read-out: MIC
[6] = ATCC29213, 20 h, S. aureus ATCC 29213, CA-MHB, 37 °C, 20 h
[7] = MRSA, 20 h, S. aureus (MRSA) JE2, CA-MHB, 37 °C, performed once
[8] = MRSA, clinically isolated MRSA #1958
[9] = MRSA, clinically isolated MRSA #2071
[10] = MRSA, clinically isolated MRSA #2110
[11] = MRSA, clinically isolated MRSA #2310
[12] = MRSA, clinically isolated MRSA #2334
[13] = MRSA, clinically isolated MRSA #2931
[14] = MRSA, clinically isolated MRSA #2932
[15] = MRSA, clinically isolated MRSA #2933
[16] = MRSA, clinically isolated MRSA #2934
[17] = MRSA, clinically isolated MRSA #2935
[18] = ATCC 51299 / VRE, E. faecalis (VRE) ATCC 51299
[19] = clinically isolated E. faecalis strain 21
[20] = clinically isolated E. faecalis strain 22
[21] = clinically isolated E. faecalis strain 23
[22] = clinically isolated E. faecalis strain 24
[23] = clinically isolated E. faecalis strain 25
[24] = clinically isolated E. faecalis strain 26
[25] = clinically isolated E. faecalis strain 27
[26] = clinically isolated E. faecalis strain 28
[27] = clinically isolated E. faecalis strain 29
[28] = clinically isolated E. faecalis strain 30
[29] = clinically isolated E. faecalis strain 31
[30] = clinically isolated E. faecalis strain 32
[31] = clinically isolated E. faecalis strain 33
[32] = clinically isolated E. faecalis strain 34
[33] = clinically isolated E. faecalis strain 35
[34] = Enterococcus faecium, ATCC 51559 / VRE, E. faecium (VRE) ATCC 51559, read-out: MIC
[35] = Enterococcus faecium, ATCC 51858 / VRE, E. faecium (VRE) ATCC 51858, read-out: MIC
[36] = Enterococcus faecium, clinically isolated E. faecium strain 1, read-out: MIC
[37] = Enterococcus faecium, clinically isolated E. faecium strain 2, read-out: MIC
[38] = Enterococcus faecium, clinically isolated E. faecium strain 3, read-out: MIC
[39] = Enterococcus faecium, clinically isolated E. faecium strain 4, read-out: MIC
[40] = Enterococcus faecium, clinically isolated E. faecium strain 5, read-out: MIC
[41] = Enterococcus faecium, clinically isolated E. faecium strain 8, read-out: MIC
[42] = Enterococcus faecium, clinically isolated E. faecium strain 9, read-out: MIC
[43] = Enterococcus faecium, clinically isolated E. faecium strain 10, read-out: MIC
[44] = Enterococcus faecium, clinically isolated E. faecium strain 11, read-out: MIC
[45] = Enterococcus faecium, clinically isolated E. faecium strain 13, read-out: MIC
[46] = Enterococcus faecium, clinically isolated E. faecium strain 14, read-out: MIC
[47] = Enterococcus faecium, clinically isolated E. faecium strain 15, read-out: MIC

SMILES: CC1(C)S[C@@H]2[C@H](NC(=O)[C@H](N)c3ccccc3)C(=O)N2[C@H]1C(=O)O [Ampicillin]
- MIC [1, 4]: 1 µg/mL (≈ 2.86 µM)
- MIC ([1]; Enterococcus faecium, ATCC 51559 / VRE, E. faecium (VRE) ATCC 51559): 128 µg/mL (≈ 366 µM)
- MIC ([1]; Enterococcus faecium, ATCC 51858 / VRE, E. faecium (VRE) ATCC 51858): 128 µg/mL (≈ 366 µM)
- MIC ([1]; Enterococcus faecium, clinically isolated E. faecium strain 1): > 128 µg/mL
- MIC ([1]; Enterococcus faecium, clinically isolated E. faecium strain 2): 128 µg/mL (≈ 366 µM)
- MIC ([1]; Enterococcus faecium, clinically isolated E. faecium strain 3): > 128 µg/mL
- MIC ([1]; Enterococcus faecium, clinically isolated E. faecium strain 4): 128 µg/mL (≈ 366 µM)
- MIC ([1]; Enterococcus faecium, clinically isolated E. faecium strain 5): 128 µg/mL (≈ 366 µM)
- MIC [1, 5]: 0.5 µg/mL (≈ 1.43 µM)
- MIC ([1]; Enterococcus faecium, clinically isolated E. faecium strain 8): 128 µg/mL (≈ 366 µM)
- MIC ([1]; Enterococcus faecium, clinically isolated E. faecium strain 9): > 128 µg/mL
- MIC ([1]; Enterococcus faecium, clinically isolated E. faecium strain 10): > 128 µg/mL
- MIC ([1]; Enterococcus faecium, clinically isolated E. faecium strain 11): 128 µg/mL (≈ 366 µM)
- MIC ([1]; Enterococcus faecium, clinically isolated E. faecium strain 13): > 128 µg/mL
- MIC ([1]; Enterococcus faecium, clinically isolated E. faecium strain 14): 128 µg/mL (≈ 366 µM)
- MIC ([1]; Enterococcus faecium, clinically isolated E. faecium strain 15): 128 µg/mL (≈ 366 µM)
- MIC [2, 6]: 1 µg/mL (≈ 2.86 µM)
- MIC [2, 7]: 4 µg/mL (≈ 11.4 µM)
- MIC [2, 8]: 32 µg/mL (≈ 91.6 µM)
- MIC [2, 9]: 32 µg/mL (≈ 91.6 µM)
- MIC [2, 10]: 16 µg/mL (≈ 45.8 µM)
- MIC [2, 11]: 32 µg/mL (≈ 91.6 µM)
- MIC [2, 12]: 16 µg/mL (≈ 45.8 µM)
- MIC [2, 13]: 32 µg/mL (≈ 91.6 µM)
- MIC [2, 14]: 32 µg/mL (≈ 91.6 µM)
- MIC [2, 15]: 32 µg/mL (≈ 91.6 µM)
- MIC [2, 16]: 16 µg/mL (≈ 45.8 µM)
- MIC [2, 17]: 16 µg/mL (≈ 45.8 µM)
- MIC (range over strains) [2]: 16 to 32 µg/mL
- MIC [3, 18]: 1 µg/mL (≈ 2.86 µM)
- MIC [3, 19]: 1 µg/mL (≈ 2.86 µM)
- MIC [3, 20]: 1 µg/mL (≈ 2.86 µM)
- MIC [3, 21]: 1 µg/mL (≈ 2.86 µM)
- MIC [3, 22]: 0.5 µg/mL (≈ 1.43 µM)
- MIC [3, 23]: 1 µg/mL (≈ 2.86 µM)
- MIC [3, 24]: 1 µg/mL (≈ 2.86 µM)
- MIC [3, 25]: 1 µg/mL (≈ 2.86 µM)
- MIC [3, 26]: 1 µg/mL (≈ 2.86 µM)
- MIC [3, 27]: 1 µg/mL (≈ 2.86 µM)
- MIC [3, 28]: 0.5 µg/mL (≈ 1.43 µM)
- MIC [3, 29]: 1 µg/mL (≈ 2.86 µM)
- MIC [3, 30]: 1 µg/mL (≈ 2.86 µM)
- MIC [3, 31]: 1 µg/mL (≈ 2.86 µM)
- MIC [3, 32]: 1 µg/mL (≈ 2.86 µM)
- MIC [3, 33]: 0.5 µg/mL (≈ 1.43 µM)
- MIC (range over strains) [3]: 0.5 to 1 µg/mL

SMILES: C[C@H]1COc2c(N3CCN(C)CC3)c(F)cc3c(=O)c(C(=O)O)cn1c23 [Levofloxacin]
- MIC [1, 4]: 4 µg/mL (≈ 11.1 µM)
- MIC [1, 34]: 16 µg/mL (≈ 44.3 µM)
- MIC [1, 35]: 4 µg/mL (≈ 11.1 µM)
- MIC [1, 36]: > 32 µg/mL
- MIC [1, 37]: > 32 µg/mL
- MIC [1, 38]: > 32 µg/mL
- MIC [1, 39]: > 32 µg/mL
- MIC [1, 40]: 32 µg/mL (≈ 88.6 µM)
- MIC [1, 5]: 0.5 µg/mL (≈ 1.38 µM)
- MIC [1, 41]: > 32 µg/mL
- MIC [1, 42]: > 32 µg/mL
- MIC [1, 43]: > 32 µg/mL
- MIC [1, 44]: > 32 µg/mL
- MIC [1, 45]: > 32 µg/mL
- MIC [1, 46]: > 32 µg/mL
- MIC [1, 47]: > 32 µg/mL
- MIC [2, 6]: 0.13 µg/mL (≈ 0.36 µM)
- MIC [2, 7]: 8 µg/mL (≈ 22.1 µM)
- MIC [2, 8]: > 32 µg/mL
- MIC [2, 9]: 0.13 µg/mL (≈ 0.36 µM)
- MIC [2, 10]: > 32 µg/mL
- MIC [2, 11]: > 32 µg/mL
- MIC [2, 12]: > 32 µg/mL
- MIC [2, 13]: 16 µg/mL (≈ 44.3 µM)
- MIC [2, 14]: > 32 µg/mL
- MIC [2, 15]: > 32 µg/mL
- MIC [2, 16]: > 32 µg/mL
- MIC [2, 17]: > 32 µg/mL
- MIC [3, 18]: 1 µg/mL (≈ 2.77 µM)
- MIC [3, 19]: 0.5 µg/mL (≈ 1.38 µM)
- MIC [3, 20]: 1 µg/mL (≈ 2.77 µM)
- MIC [3, 21]: 1 µg/mL (≈ 2.77 µM)
- MIC [3, 22]: 1 µg/mL (≈ 2.77 µM)
- MIC [3, 23]: 0.5 µg/mL (≈ 1.38 µM)
- MIC [3, 24]: 0.5 µg/mL (≈ 1.38 µM)
- MIC [3, 25]: 1 µg/mL (≈ 2.77 µM)
- MIC [3, 26]: 1 µg/mL (≈ 2.77 µM)
- MIC [3, 27]: 0.5 µg/mL (≈ 1.38 µM)
- MIC [3, 28]: 1 µg/mL (≈ 2.77 µM)
- MIC [3, 29]: 1 µg/mL (≈ 2.77 µM)
- MIC [3, 30]: 1 µg/mL (≈ 2.77 µM)
- MIC [3, 31]: 1 µg/mL (≈ 2.77 µM)
- MIC [3, 32]: 1 µg/mL (≈ 2.77 µM)
- MIC [3, 33]: 2 µg/mL (≈ 5.53 µM)
- MIC (range over strains) [3]: 0.5 to 2 µg/mL

SMILES: CN[C@H](CC(C)C)C(=O)N[C@H]1C(=O)N[C@@H](CC(N)=O)C(=O)N[C@H]2C(=O)N[C@H]3C(=O)N[C@H](C(=O)N[C@H](C(=O)O)c4cc(O)cc(O)c4-c4cc3ccc4O)[C@H](O)c3ccc(c(Cl)c3)Oc3cc2cc(c3O[C@@H]2O[C@H](CO)[C@@H](O)[C@H](O)[C@H]2O[C@H]2C[C@](C)(N)[C@H](O)[C@H](C)O2)Oc2ccc(cc2Cl)[C@H]1O [Vancomycin]
- MIC ([1]; E. faecium (VRE) ATCC 51559): >128 µg/mL
- MIC [1, 4]: 0.5 µg/mL (≈ 0.345 µM)
- MIC [1, 34]: > 128 µg/mL
- MIC [1, 35]: 128 µg/mL (≈ 88.3 µM)
- MIC [1, 36]: 1 µg/mL (≈ 0.69 µM)
- MIC [1, 37]: 1 µg/mL (≈ 0.69 µM)
- MIC [1, 38]: 1 µg/mL (≈ 0.69 µM)
- MIC [1, 39]: 1 µg/mL (≈ 0.69 µM)
- MIC [1, 40]: 1 µg/mL (≈ 0.69 µM)
- MIC [1, 5]: 0.5 µg/mL (≈ 0.345 µM)
- MIC [1, 41]: 1 µg/mL (≈ 0.69 µM)
- MIC [1, 42]: 1 µg/mL (≈ 0.69 µM)
- MIC [1, 43]: 1 µg/mL (≈ 0.69 µM)
- MIC [1, 44]: 1 µg/mL (≈ 0.69 µM)
- MIC [1, 45]: 1 µg/mL (≈ 0.69 µM)
- MIC [1, 46]: 0.5 µg/mL (≈ 0.345 µM)
- MIC [1, 47]: 1 µg/mL (≈ 0.69 µM)
- MIC (range over strains) ([1]; clinically isolated E. faecium (14 strains)): 0.5 to 1 µg/mL
- MIC [2, 6]: 1 µg/mL (≈ 0.69 µM)
- MIC [2, 7]: 1 µg/mL (≈ 0.69 µM)
- MIC [2, 8]: 1 µg/mL (≈ 0.69 µM)
- MIC [2, 9]: 1 µg/mL (≈ 0.69 µM)
- MIC [2, 10]: 2 µg/mL (≈ 1.38 µM)
- MIC [2, 11]: 2 µg/mL (≈ 1.38 µM)
- MIC [2, 12]: 2 µg/mL (≈ 1.38 µM)
- MIC [2, 13]: 1 µg/mL (≈ 0.69 µM)
- MIC [2, 14]: 2 µg/mL (≈ 1.38 µM)
- MIC [2, 15]: 1 µg/mL (≈ 0.69 µM)
- MIC [2, 16]: 1 µg/mL (≈ 0.69 µM)
- MIC [2, 17]: 2 µg/mL (≈ 1.38 µM)
- MIC (range over strains) [2]: 1 to 2 µg/mL
- MIC [3, 18]: 128 µg/mL (≈ 88.3 µM)
- MIC [3, 19]: 1 µg/mL (≈ 0.69 µM)
- MIC [3, 20]: 1 µg/mL (≈ 0.69 µM)
- MIC [3, 21]: 1 µg/mL (≈ 0.69 µM)
- MIC [3, 22]: 1 µg/mL (≈ 0.69 µM)
- MIC [3, 23]: 1 µg/mL (≈ 0.69 µM)
- MIC [3, 24]: 1 µg/mL (≈ 0.69 µM)
- MIC [3, 25]: 1 µg/mL (≈ 0.69 µM)
- MIC [3, 26]: 1 µg/mL (≈ 0.69 µM)
- MIC [3, 27]: 1 µg/mL (≈ 0.69 µM)
- MIC [3, 28]: 1 µg/mL (≈ 0.69 µM)
- MIC [3, 29]: 4 µg/mL (≈ 2.76 µM)
- MIC [3, 30]: 1 µg/mL (≈ 0.69 µM)
- MIC [3, 31]: 2 µg/mL (≈ 1.38 µM)
- MIC [3, 32]: 1 µg/mL (≈ 0.69 µM)
- MIC [3, 33]: 1 µg/mL (≈ 0.69 µM)
- MIC (range over strains) [3]: 1 to 4 µg/mL
